Experimental data from publication PMC3996367, “Profiling of drugs and environmental chemicals for functional impairment of neural crest migration in a novel stem cell-based test battery” (Archives of Toxicology, 2014).

What was measured:
[1] = test system: HEK293 cells; conditions: human
[2] = test system: mESC-derived neural stem cells (mESCn); conditions: mouse
[3] = test system: hESC-derived neural crest cells (NCC); conditions: human
[4] = design: method as in US EPA [2006]; conditions: ref US EPA [2006]; cited from earlier work
[5] = design: method as in US EPA [2006]; conditions: ref US EPA [2006]; cited from earlier work; remark: listed apart in the source
[6] = test system: rats; conditions: cited from earlier work
[7] = test system: Xenopus laevis embryos; design: method as in Di Renzo et al. (2011); conditions: treated during early neurulation; craniofacial defects, bent forebrain, abnormal hindbrain segmentation; ref Di Renzo et al. (2011); cited from earlier work
[8] = test system: migration of hESC-derived neural crest cells (NCC); test: MINC assay (migration inhibition of neural crest cells, UKN2); conditions: 48 h, in a non-cytotoxic concentration range

CC(C)(C)C(=O)C(Oc1ccc(Cl)cc1)n1cncn1 (stereo not drawn) [Triadimefon]
Highest non-cytotoxic conc. in HEK293 [1]: 50.0 µM
Highest non-cytotoxic conc. in mESCn [2]: > 50.0 µM
Concentration for hit finding in NCC (highest non-cytotoxic concentration in the UKN2 test system) [3]: 50 µM
Octanol:water partition (Kow) [4]: 912
Blood:plasma concentration ratio [5]: 0.84
Free (unbound) fraction [5]: 0.11
Dose increasing testosterone levels and related effects in male offspring ([6]; Wistar rats, perinatal exposure, ref Goetz et al. (2007)): 47 mg/kg/day
Dose causing the same neurotoxic symptoms ([6]; chronic dietary exposure, male Wistar rats, ref US EPA (2006)): 54.6 mg/kg/day
Doses at which a range of toxic effects is observed ([6]; effects on male fertility and CNS toxicity, ref Crowell et al. 2011): around 50 mg/kg/day
Dose causing transient CNS toxicity (hyperactivity, stereotyped behavior) ([6]; single dose, oral gavage, adult male Long-Evans rats, ref Crofton et al. (2011)): 50 mg/kg
Concentration inducing abnormalities [7]: 500 µM
Effect on NCC migration in concentration-response study [8]: concentration-dependent effect
